In test [1] the target is SOS1 (Homo sapiens (Human), UniProt Q07889). The test can be described thus: Ras-SOS interaction assay (HTRF), K-Ras G13D utilized. It is filed as binding. The following applies: K-Ras G13D. Background: Time-resolved FRET reads energy transfer from a long-lived donor to a nearby acceptor.
The subject of test [2] is NCI-H1975 (ATCC CRL-5908) cell line comprising an EGFR T790M L858R double mutation. The test can be described thus: EGFR-SOS cellular inhibition assay (CellTiter-Glo cell proliferation). It is filed as cell-based. The following applies: Homo sapiens. For orientation: Cellular ATP, detected with luciferase, serves as a proxy for viable cell number.
Experimental: A CellTiter-Glo (CTG) luminescent based assay (Promega) is used to assess growth of the cells, as a measurement of the ability of the compounds herein to inhibit EGFR signaling in the cells. […] The day after plating, cells are treated with a dilution series (e.g., a 9 point 3-fold dilution series) of the compounds herein (e.g., approximately 125 μL final volume per well).
Setting [3] is: 120 h, NCI-H1975 cell proliferation, approximately 5 days, read-out: H1975 IC50.
The mark [4] stands for this setting: read-out: IC50 value against SOS1.
[5] abbreviates: NCI-H1975, EGFR T790M L858R double mutation, read-out: IC50 in inhibiting growth of NCI-H1975 cell line.

For 14 compounds, IC50 results are on record in US20230339952A1, “MACROCYCLIC HETEROCYCLES AND USES THEREOF” (Kumquat Biosciences Inc., priority 2022, published 2023).

Each structure is given as a SMILES string. pIC50: −log10 of the molar value. Like-named read-outs stand apart in the source and are kept apart here.

SOS1, sequence (Q07889 564-1049): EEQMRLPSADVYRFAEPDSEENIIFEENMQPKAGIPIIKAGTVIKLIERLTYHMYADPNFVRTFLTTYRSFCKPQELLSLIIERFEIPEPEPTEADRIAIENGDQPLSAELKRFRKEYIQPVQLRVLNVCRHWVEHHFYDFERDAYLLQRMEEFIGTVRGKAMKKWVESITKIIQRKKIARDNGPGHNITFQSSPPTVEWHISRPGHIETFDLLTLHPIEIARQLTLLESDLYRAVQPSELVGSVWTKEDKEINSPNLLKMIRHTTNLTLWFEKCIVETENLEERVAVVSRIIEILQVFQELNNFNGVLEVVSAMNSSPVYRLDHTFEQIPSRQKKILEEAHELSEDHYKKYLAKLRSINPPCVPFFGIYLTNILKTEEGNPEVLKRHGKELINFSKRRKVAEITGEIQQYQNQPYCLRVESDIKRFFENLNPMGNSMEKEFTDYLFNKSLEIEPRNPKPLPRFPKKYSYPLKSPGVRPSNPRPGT

For `C[C@H]1Nc2ncnc3c2cc(C2(C#N)CC2)c(=O)n3CCCCCCCN2CCC(CC2(C)C)C(F)(F)c2cccc1c2` (stereo partly drawn) [Compound 43, 1-((4R)-2,2-difluoro-1^2,1^2,4-trimethyl-6^7-oxo-6^7,6^8-dihydro-5-aza-6(4,8)-pyrido[2,3-d]pyrimidina-1(4,1)-piperidina-3(1,3)-benzenacyclotridecaphane-6^6-yl)cyclopropane-1-carbonitrile], the results for the pIC50 in test [1] (read-out: SOS1 IC50) and in test [2] (setting [3]) were > 7.00 and > 6.00, respectively.

As to `C[C@H]1Nc2ncnc3c2cc(C2(C#N)CC2)c(=O)n3CC(=O)N(C)CCCCN2CCC(CC2)C(F)(F)c2cccc1c2` [Compound 52, 1-((4R)-2,2-difluoro-4,9-dimethyl-6^7,8-dioxo-6^7,6^8-dihydro-5,9-diaza-6(4,8)-pyrido[2,3-d]pyrimidina-1(4,1)-piperidina-3(1,3)-benzenacyclotridecaphane-6^6-yl)cyclopropane-1-carbonitrile], the pIC50 (as a rule, the negative decadic logarithm of the IC50, by convention in mol/L) in test [1] (read-out: SOS1 IC50) was > 7.00; in test [2] (setting [3]), > 6.00.

As for `C[C@H]1Nc2ncnc3c2cc(N2CCS(=O)(=O)CC2)c(=O)n3CCCOCCCCN2CC(C2)CC(F)(F)c2cccc1c2` [Compound 209, (3R)-1^6-(1,1-dioxidothiomorpholino)-5,5-difluoro-3-methyl-1^7,1^8-dihydro-12-oxa-2-aza-1(4,8)-pyrido[2,3-d]pyrimidina-7(3,1)-azetidina-4(1,3)-benzenacyclopentade-caphan-1^7-one], the pIC50 in test [1] (setting [4]) was > 7.30; in test [1] (read-out: SOS1 IC50), > 7.00; in test [2] (setting [3]) it was > 6.00; in test [2] (setting [5]), > 6.30.

With `C/C1=C\CCCCn2c(=O)c(C3CCS(=O)(=O)CC3)cc3c(ncnc32)N[C@H](C)c2cccc(c2)C(F)(F)C2CCN(CC2)C1` [Compound 80, (4R,E)-6^6-(1,1-dioxidotetrahydro-2H-thiopyran-4-yl)-2,2-difluoro-4,12-dimethyl-6^7,6^8-dihydro-5-aza-6(4,8)-pyrido[2,3-d]pyrimidina-1(4,1)-piperidina-3(1,3)-benzenacyclotridecaphan-11-en-6^7-one], the pIC50 is > 7.00 in test [1] (read-out: SOS1 IC50) and > 6.00 in test [2] (setting [3]).

For `CC(C)N1CCC(c2cc3c4ncnc3n(c2=O)CCCCCCCN2CCC(CC2)C(F)(F)c2cccc(c2)[C@@H](C)N4)CC1` [Compound 73, (4R)-2,2-difluoro-6^6-(1-isopropylpiperidin-4-yl)-4-methyl-6^7,6^8-dihydro-5-aza-6(4,8)-pyrido[2,3-d]pyrimidina-1(4,1)-piperidina-3(1,3)-benzenacyclotridecaphan-6^7-one], the figures for the pIC50 in test [1] (read-out: SOS1 IC50) and in test [2] (setting [3]) were > 7.00 and > 6.00, respectively.

In the case of `C[C@H]1Nc2ncnc3c2cc(C2(C#N)CCS(=O)(=O)CC2)c(=O)n3CCCCCCN2CCC(CC2)CC(F)(F)c2cccc1c2F` [Compound 23, 4-((3R)-4^2,5,5-trifluoro-3-methyl-1^7-oxo-1^7,1^8-dihydro-2-aza-1(4,8)-pyrido[2,3-d]pyrimidina-7(4,1)-piperidina-4(1,3)-benzenacyclotridecaphane-1^6-yl)tetrahydro-2H-thiopyran-4-carbonitrile 1,1-dioxide], the pIC50 was > 7.00 in test [1] (read-out: SOS1 IC50) and > 6.00 in test [2] (setting [3]).

Turning to `CC1C/C=C\CCn2c(=O)c(C3CCS(=O)(=O)CC3)cc3c(ncnc32)N[C@H](C)c2cccc(c2F)C(F)(F)C2CCN(CC2)C1` (stereo partly drawn) [Compound 107, (4R,Z)-6^6-(1,1-dioxidotetrahydro-2H-thiopyran-4-yl)-3^2,2,2-trifluoro-4,12-dimethyl-6^7,6^8-dihydro-5-aza-6(4,8)-pyrido[2,3-d]pyrimidina-1(4,1)-piperidina-3(1,3)-benzenacyclotridecaphan-9-en-6^7-one], the results for the pIC50 in test [1] (read-out: SOS1 IC50) and in test [2] (setting [3]) were > 7.00 and > 6.00, respectively.

On to `C[C@H]1Nc2ncnc3c2cc(C2(C#N)CCS(=O)(=O)CC2)c(=O)n3CCCCCCCN2CC(C2)CC(F)(F)c2cccc1c2` [Compound 210, 4-((3R)-5,5-difluoro-3-methyl-1^7-oxo-1^7,1^8-dihydro-2-aza-1(4,8)-pyrido[2,3-d]pyrimidina-7(3,1)-azetidina-4(1,3)-benzenacyclotetradecaphane-1^6-yl)tetrahydro-2H-thiopyran-4-carbonitrile 1,1-dioxide], for which the pIC50 in test [1] (setting [4]) was > 7.30; in test [1] (read-out: SOS1 IC50), > 7.00; in test [2] (setting [3]), > 6.00; in test [2] (setting [5]), > 6.30.

Consider `Cc1nc2c3cc(C4(C#N)CC4)c(=O)n(c3n1)CCCCCCOCC(F)(F)c1cccc(c1F)[C@@H](C)N2` [Compound 130, 1-((3R)-4^2,5,5-trifluoro-1^2,3-dimethyl-1^7-oxo-1^7,1^8-dihydro-7-oxa-2-aza-1(4,8)-pyrido[2,3-d]pyrimidina-4(1,3)-benzenacyclotridecaphane-1^6-yl)cyclopropane-1-carbonitrile], for which the figures for the pIC50 in test [1] (read-out: SOS1 IC50) and in test [2] (setting [3]) were 5.30 to 7.00 and 5.00 to 6.00, respectively.

Regarding `C[C@@H]1CCCNC(=O)Cn2c(=O)c(C3(C#N)CC3)cc3c(ncnc32)N[C@H](C)c2cccc(c2F)C(F)(F)C2CCN1CC2` [Compound 72, 1-((4R,13R)-3^2,2,2-trifluoro-4,13-dimethyl-6^7,8-dioxo-6^7,6^8-dihydro-5,9-diaza-6(4,8)-pyrido[2,3-d]pyrimidina-1(4,1)-piperidina-3(1,3)-benzenacyclotridecaphane-6^6-yl)cyclopropane-1-carbonitrile], the figures for the pIC50 in test [1] (read-out: SOS1 IC50) and in test [2] (setting [3]) were > 7.00 and > 6.00, respectively.

With `CC(C)N1CCN(c2cc3c4ncnc3n(c2=O)CCCCCCCN2CCC(CC2)C(F)(F)c2cccc(c2F)[C@@H](C)N4)CC1` [Compound 21, (4R)-3^2,2,2-trifluoro-6^6-(4-isopropylpiperazin-1-yl)-4-methyl-6^7,6^8-dihydro-5-aza-6(4,8)-pyrido[2,3-d]pyrimidina-1(4,1)-piperidina-3(1,3)-benzenacyclotridecaphan-6^7-one], the pIC50 was > 7.00 in test [1] (read-out: SOS1 IC50) and > 6.00 in test [2] (setting [3]).

As for `Cc1nc2c3cc(C4(C#N)CC4)c(=O)n(c3n1)CCCCCN1CCC(CC1)C(F)(F)c1cccc(c1)[C@@H](C)N2` [Compound 169, 1-((4R)-2,2-difluoro-6^2,4-dimethyl-6^7-oxo-6^7,6^8-dihydro-5-aza-6(4,8)-pyrido[2,3-d]pyrimidina-1(4,1)-piperidina-3(1,3)-benzenacycloundecaphane-6^6-yl)cyclopropane-1-carbonitrile], the results for the pIC50 in test [1] (read-out: SOS1 IC50) and in test [2] (setting [3]) were > 7.00 and > 6.00, respectively.

With `Cc1nc2c3cc(C4(C#N)CC4)c(=O)n(c3n1)CC/C=C\COCC(F)(F)c1cccc(c1F)[C@@H](C)N2` [Compound 3, 1-((3R,Z)-4^2,5,5-trifluoro-1^2,3-dimethyl-1^7-oxo-1^7,1^8-dihydro-7-oxa-2-aza-1(4,8)-pyrido[2,3-d]pyrimidina-4(1,3)-benzenacyclododecaphan-9-en-1^6-yl)cyclopropane-1-carbonitrile], the pIC50 in test [1] (read-out: SOS1 IC50) was 5.30 to 7.00; in test [2] (setting [3]) it was 5.00 to 6.00.

With `C[C@H]1Nc2ncnc3c2cc(C2(C#N)CC2)c(=O)n3CCCCNC(=O)CN2CCC(CC2)C(F)(F)c2cccc1c2F` [Compound 147, 1-((4R)-3^2,2,2-trifluoro-4-methyl-6^7,12-dioxo-6^7,6^8-dihydro-5,11-diaza-6(4,8)-pyrido[2,3-d]pyrimidina-1(4,1)-piperidina-3(1,3)-benzenacyclotridecaphane-6^6-yl)cyclopropane-1-carbonitrile], the negative logarithm of the IC50 (pIC50) was > 7.00 in test [1] (read-out: SOS1 IC50) and > 6.00 in test [2] (setting [3]).
